Experimental findings from publication PMC12311729, “Probing the Mechanism of L‑DOPA 2,3-Dioxygenase Using Synthetic Derivatives of 3,4-Dihydroxyhydrocinnamic Acid” (ACS Omega, 2025) are described below.

This assay relates to S. hygroscopicus jingganensis L-DOPA 2,3-dioxygenase (ShjDDO). Kind of assay: Presteady state stopped-flow kinetic assay, modeled with KinTek Explorer. The class given is biochemical, Streptomyces hygroscopicus jingganensis. The protocol:
Reaction temperature was controlled at 14 ± 0.5 °C by a circulating water bath. […] Stock solutions of 6-[…] prepared in DMSO. […] ShjDDO was reconstituted with iron(II) sulfate heptahydrate, gel filtered into the reaction buffer, and loaded into the drive syringe. […] Fifteen to twenty progress curves from the same experimental conditions were averaged in the KinTek Stopped Flow software and exported to KinTek Explorer for modeling. Between experiments, the instrument drive syringes were cleaned with acid, base, and water; soaked in 1% Hellmanex detergent for 30 min at ∼30-35 °C; thoroughly rinsed with water; and stored in 10% ethanol. […] state kinetic data were analyzed by fitting to simulated mechanisms using the KinTek Explorer software (KinTek Corp, Austin, TX). KinTek Explorer simulates experimental results by using direct numerical integration of rate equations for the kinetic model and yields estimates for the rate constants of microscopic steps. […] state experiments were modeled using KinTek Explorer according to a defined reaction pathway, as described in the Results and Discussion and shown in Scheme . The extinction coefficients of the DHHCA and 6-[…] semialdehyde products were independently determined as described above and fixed during fitting. Some rates were fixed as either “fast” (i.e., 1 × 10^9) or very slow (1 × 10^-12, i.e., ∼0) as described in the text. The equilibrium represented by k 1 and k -1 was fixed at the ratio of substrate charge states as predicted by the experimentally determined pK a values (Table ) and the Henderson-Hasselbach equation. Extinction coefficients were fitted and/or fixed during fitting as described in the text and interpreted using the observable expression: […], where a is the extinction coefficient applied to ESQ, b is the independently experimentally determined extinction coefficient on P, and c is a y-axis offset. […] ESO2 is the ternary complex of enzyme, substrate, and oxygen. ESQ represents the putative semiquinone intermediate, a UV-absorbing species, and ESQ_X is the species formed from the nonproductive quenching of the semiquinone. […] EP is the enzyme-product complex, and P is the free semialdehyde product. P can then degrade nonenzymatically to the spectroscopically silent P_X. Errors on each fit were calculated from 2[…] at 0.83 Chi^2. The KinTek Explorer program FitSpace explores the uniqueness of a particular fit to the data by measuring the dependence of the sum square error (SSE) on each pair of parameters, while allowing all other parameters to vary in seeking the best fit. […]

Where [1] appears, read: pH 7.35, 14 °C, ∼1000 μM O2, 380 nm, fitted, ± is FitSpace range.

SMILES strings stand for the structures.

In the case of `N#Cc1cc(O)c(O)cc1CCC(=O)O` [6-CyanoDHHCA (5), 3-(2-cyano-4,5-dihydroxyphenyl) propanoic acid], under setting [1], the “k6 (productive formation of EI)” value was roughly 0.55 s⁻¹ and the “k7 (rate of inactivation, ESQ to ESQ_X)” value is roughly 0.3 s⁻¹. Under “ratio k6/k7, presteady state with ShjDDO”, the “productive formation of EI (k 6) faster than the rate of inactivation (k 7)” value is reported as 1.85 times.
